Active and inactive are the calls of the source. The rule behind the calls is not given here.
Experiments:
Tyrosinase = biological target: T1, Tyrosinase (Agaricus bisporus, UniProt O42713)
T1 sequence (O42713 whole entry): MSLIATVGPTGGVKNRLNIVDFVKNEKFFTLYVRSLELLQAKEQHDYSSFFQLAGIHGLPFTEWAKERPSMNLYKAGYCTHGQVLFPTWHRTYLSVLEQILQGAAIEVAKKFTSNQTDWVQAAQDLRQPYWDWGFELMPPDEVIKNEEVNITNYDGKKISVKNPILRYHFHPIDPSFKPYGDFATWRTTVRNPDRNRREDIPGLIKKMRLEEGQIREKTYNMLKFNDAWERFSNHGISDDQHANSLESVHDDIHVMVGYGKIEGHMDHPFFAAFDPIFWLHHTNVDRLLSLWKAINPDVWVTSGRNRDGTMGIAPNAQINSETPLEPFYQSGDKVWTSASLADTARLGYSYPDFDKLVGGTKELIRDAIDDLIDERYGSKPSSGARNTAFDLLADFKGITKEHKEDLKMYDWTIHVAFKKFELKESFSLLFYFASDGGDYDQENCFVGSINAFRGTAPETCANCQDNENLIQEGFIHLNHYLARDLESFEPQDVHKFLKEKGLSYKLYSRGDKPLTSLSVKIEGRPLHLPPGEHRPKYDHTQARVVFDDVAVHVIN
Description: Inhibition of mushroom tyrosinase assessed as reduction in diphenolase activity using L-DOPA substrate pre-incubated for 20 mins at 30 degC

[1] = biological target: T2, Tyrosinase (Agaricus bisporus) (UniProt O42713); experiment: Competitive inhibition of mushroom tyrosinase assessed as reduction in L-DOPA oxidation by Lineweaver-Burk plot
T2 sequence (whole entry): T1 sequence (O42713 whole entry)

| Structure (SMILES) | IC50 (Tyrosinase) [µM] | inhibition [1] |
| --- | --- | --- |
| Oc1ccc(C2CC(c3ccc(O)cc3O)=NN2)cc1 (stereo unspecified) | 0.882 | Active |
| O=c1cc(-c2ccc(O)cc2O)oc2cc(O)cc(O)c12 [NORARTOCARPETIN] | > 200 | – |
| CC(=O)N1N=C(c2ccc(O)cc2)CC1c1ccc(O)cc1 (stereo unspecified) | 3.51 | – |
| Oc1cccc(C2CC(c3ccc(O)cc3O)=NN2)c1 (stereo unspecified) | 0.837 | Active |
| CC(=O)N1N=C(c2ccc(O)cc2O)CC1c1ccc(O)c(O)c1 (stereo unspecified) | 2.74 | Active |
| COc1cc(OC)cc(-c2nc(-c3ccc(O)cc3O)cs2)c1 | 2 | – |
| CC(=O)N1N=C(c2ccccc2O)CC1c1ccc(O)c(O)c1 (stereo unspecified) | > 200 | – |
| CC(=O)N1N=C(c2ccc(O)cc2O)CC1c1ccc(O)c([N+](=O)[O-])c1 (stereo unspecified) | > 200 | – |
| CC(=O)N1N=C(c2ccc(O)cc2)CC1c1ccc(O)c(O)c1 (stereo unspecified) | 1.07 | – |
| CC(=O)N1N=C(c2ccccc2O)CC1c1ccc(O)cc1 (stereo unspecified) | 13.1 | – |
| CC(=O)N1N=C(c2cc(O)cc(O)c2)CC1c1ccc(O)cc1 (stereo unspecified) | 161 | – |
| CC(=O)N1N=C(c2ccc(O)cc2)CC1c1cccc(O)c1 (stereo unspecified) | 147 | – |
| COc1cc(C2CC(c3ccc(O)cc3)=NN2C(C)=O)ccc1O (stereo unspecified) | > 200 | – |
| CC(=O)N1N=C(c2ccc(O)cc2O)CC1c1cccc(O)c1 (stereo unspecified) | 0.863 | Active |
| O=C1CC(c2ccc(O)cc2O)Oc2cc(O)cc(O)c21 (stereo unspecified) | – | Active |
| O=C(OCc1ccc(O)cc1)c1ccc(O)cc1O | – | Active |
| Oc1ccc(C2CC(c3ccccc3O)=NN2)cc1 (stereo unspecified) | 11.8 | – |
| COc1cc(C2CC(c3ccc(O)cc3O)=NN2C(C)=O)ccc1O (stereo unspecified) | 0.301 | Active |
| CC(=O)N1N=C(c2ccc(O)cc2O)CC1c1ccc(O)cc1 (stereo unspecified) | 1.69 | Active |
| O=C(/C=C/c1ccc(O)cc1O)c1ccc(O)cc1O | – | Active |
| CC(=O)N1N=C(c2cc(O)cc(O)c2)CC1c1cccc(O)c1 (stereo unspecified) | > 200 | – |
| COc1cc(O)ccc1C1CC(c2ccccc2O)=NN1C(C)=O (stereo unspecified) | > 200 | – |
| CC(=O)N1N=C(c2ccccc2O)CC1c1cccc(O)c1 (stereo unspecified) | > 200 | – |
| COc1cc(C2CC(c3ccccc3O)=NN2C(C)=O)ccc1O (stereo unspecified) | 13.4 | – |
| COc1cc(C2CC(c3ccc(O)cc3O)=NN2)ccc1O (stereo unspecified) | 2.43 | – |
